According to US20160220569A1, “CDK4/6 Inhibitor Dosage Formulations For The Protection Of Hematopoietic Stem And Progenitor Cells During Chemotherapy” (G1 Therapeutics, Inc., priority 2015, published 2016):
Like-named read-outs stand apart in the source and are kept apart here.

Experiment: 14-day oral gavage toxicokinetic study in rats
Format: in vivo
Conditions: both sexes, rat, plasma, po; for concentration at 0.5 h / concentration at 1 h / concentration at 2 h / concentration at 4 h / concentration at 8 h / concentration at 12 h / concentration at 24 h: Mean Compound 1 Plasma Concentration, rats, Overall; for half-life: read-out: t½ (converted)
Procedure: Plasma was obtained from blood samples collected from rats in a composite sampling scheme, with 3 samples collected per sex, per dose, at each target collection time, as illustrated in Table 21 to Table 25. Samples were collected from the vehicle control group on Day 1 and Day 14 at 3 hour after administration. […] Blood samples were collected in tubes containing K3EDTA as an anticoagulant and placed on ice until processed to plasma via centrifugation. Samples were stored frozen at −80° C. until shipment to the bioanalytical laboratory for analysis.
The following parameters were determined:
Cmax: Maximum observed plasma concentration (ng/mL).
A value of 0 ng/mL was assigned to all values below the lower limit of quantitation (BLQ, <10.0 ng/mL).
AUC(0-inf): Area under the plasma concentration vs. time curve extrapolated from 0 to infinity (ng*h/mL), calculated as AUC(0-t)+AUC(t-inf) where AUC(t-inf) is calculated as last measurable concentration (CLast) divided by ke, where ke is the elimination rate constant determined by linear regression of the last three analytically measured points on the log plasma concentration vs. time curve. The selection criteria of the data points for inclusion in the calculation of ke required that at least three data points representing the terminal phase (after Tmax) were regressed and that R2≧0.850 when rounded.
CL: Clearance (L/h/kg), calculated as the dose divided by AUC(0-t).
Vd: Volume of distribution (L/kg), calculated as dose divided by the product of ke and AUC(0-inf).
Vdss: Steady state volume of distribution (L/kg), calculated as clearance […] mean residence time, where mean residence time is calculated as the area under the first moment curve divided by AUC(0-t).
t½: Elimination half-life (h), calculated as ln(2)/ke, where ke is the elimination rate constant determined by linear regression. Half-life was defined as not determined if regression criteria (specified in AUC(0-inf) above) were not met.
Cmax/Dose: Normalized Cmax, calculated as Cmax divided by total dose.
AUC/Dose: Normalized AUC, calculated as AUC(0-t) divided by total dose.
ii. Statistical Analysis Mean and standard deviation (SD) were calculated in Watson. Values of BLQ were assigned a value of 0 ng/mL for mean calculations. Concentration values and derived TK parameters were reported to three significant figures.

[1] = 2 mg/kg, oral 2 mg/kg, Study Day 1, Overall
[2] = 2 mg/kg, oral 2 mg/kg, Study Day 14, Overall
[3] = 5 mg/kg, oral 5 mg/kg, Study Day 1, Overall
[4] = 5 mg/kg, oral 5 mg/kg, Study Day 14, Overall

CN1CCN(c2ccc(Nc3ncc4cc5n(c4n3)C3(CCCCC3)CNC5=O)nc2)CC1 [Compound 1, 2′-((5-(4-methylpiperazin-1-yl)pyridin-2-yl)amino)-7′,8′-dihydro-6′H-spiro[cyclohexane-1,9′-pyrazino[1′,2′:1,5]pyrrolo[2,3-d]pyrimidin]-6′-one]
concentration at 0.5 h (2 mg/kg, oral 2 mg/kg, Day 1, 0.5 h): 83.7 ng/mL | concentration at 1 h (2 mg/kg, oral 2 mg/kg, Day 1, 1 h): 74.3 ng/mL | concentration at 2 h (2 mg/kg, oral 2 mg/kg, Day 1, 2 h): 149 ng/mL | concentration at 4 h (2 mg/kg, oral 2 mg/kg, Day 1, 4 h): 150 ng/mL | concentration at 8 h (2 mg/kg, oral 2 mg/kg, Day 1, 8 h): 93.6 ng/mL | concentration at 12 h (2 mg/kg, oral 2 mg/kg, Day 1, 12 h): 67.9 ng/mL | concentration at 24 h (2 mg/kg, oral 2 mg/kg, Day 1, 24 h): 6.5 ng/mL | concentration at 0.5 h (2 mg/kg, oral 2 mg/kg, Day 14, 0.5 h): 88.2 ng/mL | concentration at 1 h (2 mg/kg, oral 2 mg/kg, Day 14, 1 h): 78.5 ng/mL | concentration at 2 h (2 mg/kg, oral 2 mg/kg, Day 14, 2 h): 142 ng/mL | concentration at 4 h (2 mg/kg, oral 2 mg/kg, Day 14, 4 h): 119 ng/mL | concentration at 8 h (2 mg/kg, oral 2 mg/kg, Day 14, 8 h): 103 ng/mL | concentration at 12 h (2 mg/kg, oral 2 mg/kg, Day 14, 12 h): 51.9 ng/mL | concentration at 24 h (2 mg/kg, oral 2 mg/kg, Day 14, 24 h): 4.32 ng/mL | AUC(0-inf) [1]: 1770 ng·h/mL | AUC(0-t) [1]: 1730 ng·h/mL | Cmax [1]: 150 ng/mL | Tmax [1]: 4 h | half-life [1]: 240 min | AUC(0-inf) [2]: 1550 ng·h/mL | AUC(0-t) [2]: 1530 ng·h/mL | Cmax [2]: 142 ng/mL | Tmax [2]: 2 h | half-life [2]: 208 min | concentration at 0.5 h (5 mg/kg, oral 5 mg/kg, Day 1, 0.5 h): 252 ng/mL | concentration at 1 h (5 mg/kg, oral 5 mg/kg, Day 1, 1 h): 300 ng/mL | concentration at 2 h (5 mg/kg, oral 5 mg/kg, Day 1, 2 h): 391 ng/mL | concentration at 4 h (5 mg/kg, oral 5 mg/kg, Day 1, 4 h): 445 ng/mL | concentration at 8 h (5 mg/kg, oral 5 mg/kg, Day 1, 8 h): 318 ng/mL | concentration at 12 h (5 mg/kg, oral 5 mg/kg, Day 1, 12 h): 168 ng/mL | concentration at 24 h (5 mg/kg, oral 5 mg/kg, Day 1, 24 h): 22.1 ng/mL | concentration at 0.5 h (5 mg/kg, oral 5 mg/kg, Day 14, 0.5 h): 348 ng/mL | concentration at 1 h (5 mg/kg, oral 5 mg/kg, Day 14, 1 h): 389 ng/mL | concentration at 2 h (5 mg/kg, oral 5 mg/kg, Day 14, 2 h): 470 ng/mL | concentration at 4 h (5 mg/kg, oral 5 mg/kg, Day 14, 4 h): 430 ng/mL | concentration at 8 h (5 mg/kg, oral 5 mg/kg, Day 14, 8 h): 262 ng/mL | concentration at 12 h (5 mg/kg, oral 5 mg/kg, Day 14, 12 h): 151 ng/mL | concentration at 24 h (5 mg/kg, oral 5 mg/kg, Day 14, 24 h): 18 ng/mL | AUC(0-inf) [3]: 5150 ng·h/mL | AUC(0-t) [3]: 5020 ng·h/mL | Cmax [3]: 445 ng/mL | Tmax [3]: 4 h | half-life [3]: 248 min | AUC(0-inf) [4]: 4930 ng·h/mL | AUC(0-t) [4]: 4820 ng·h/mL | Cmax [4]: 470 ng/mL | Tmax [4]: 2 h | half-life [4]: 245 min | concentration at 0.5 h (15 mg/kg, oral 15 mg/kg, Day 1, 0.5 h): 899 ng/mL | concentration at 1 h (15 mg/kg, oral 15 mg/kg, Day 1, 1 h): 1170 ng/mL | concentration at 2 h (15 mg/kg, oral 15 mg/kg, Day 1, 2 h): 1490 ng/mL | concentration at 4 h (15 mg/kg, oral 15 mg/kg, Day 1, 4 h): 1430 ng/mL | concentration at 8 h (15 mg/kg, oral 15 mg/kg, Day 1, 8 h): 1230 ng/mL | concentration at 12 h (15 mg/kg, oral 15 mg/kg, Day 1, 12 h): 767 ng/mL | concentration at 24 h (15 mg/kg, oral 15 mg/kg, Day 1, 24 h): 84.5 ng/mL
